As usually defined, the EC50 is the concentration at which the effect is half-maximal.

The target in the experiment is T1, FPRL-1 (Homo sapiens, UniProt P25090).
T1 construct: expressed in transfected cells
T1 sequence (P25090 1-351): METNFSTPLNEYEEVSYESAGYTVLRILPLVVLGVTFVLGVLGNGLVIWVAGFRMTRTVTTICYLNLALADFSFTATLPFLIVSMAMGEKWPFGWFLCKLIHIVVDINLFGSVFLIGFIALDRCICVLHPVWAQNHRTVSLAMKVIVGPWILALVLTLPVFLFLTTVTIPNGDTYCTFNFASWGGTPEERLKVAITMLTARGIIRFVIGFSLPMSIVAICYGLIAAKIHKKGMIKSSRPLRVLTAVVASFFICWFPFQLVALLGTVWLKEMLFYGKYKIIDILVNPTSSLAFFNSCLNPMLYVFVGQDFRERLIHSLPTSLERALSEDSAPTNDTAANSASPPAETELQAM
Briefly: compound-induced calcium activity on FLIPR Tetra in CHO-Gα16 cells stably expressing FPRL1. Type of experiment: cell-based. The note with it: for FPRL-1 Ga16-CHO (Rel. eff.): relative efficacy; for EC50: tested 0.61 to 10,000 nM, read-out: FPRL-1 Ga16-CHO EC50. The method, then:
CHO-Gα16 cells stably expressing FPRL1 were cultured in (F12, 10% FBS, 1% PSA, 400 μg/ml geneticin and 50 μg/ml hygromycin) and HEK-Gqi5 cells stable expressing FPR1 were cultured in (DMEM high glucose, 10% FBS, 1% PSA, 400 μg/ml geneticin and 50 μg/ml hygromycin). In general, the day before the experiment, 18,000 cells/well were plated in a 384-well clear bottom poly-d-lysine coated plate. The following day the screening compound-induced calcium activity was assayed on the FLIPR^Tetra. The drug plates were prepared in 384-well microplates using the EP3 and the MultiPROBE robotic liquid handling systems. Compounds were tested at concentrations ranging from 0.61 to 10,000 nM. Results are expressed as EC50 (nM) and efficacy values.

For `CC[C@H](C)[C@H](NC(=O)Nc1ccc(Br)cc1F)C(=O)NCC(C)=O` [Compound 13, (2S,3S)-2-{[(4-bromo-2-fluorophenyl)carbamoyl]amino}-3-methyl-N-(2-oxopropyl)pentanamide], the “FPRL-1 Ga16-CHO (Rel. eff.)” value is “(1.01)” and the EC50 came out at 0.036 µM.
Taken in the same sequence, the figures for `CC(=O)CNC(=O)[C@H](Cc1ccccc1)NC(=O)Nc1ccc(Br)cc1F` [Compound 17, (2S)-2-{[(4-bromo-2-fluorophenyl)carbamoyl]amino}-N-(2-oxopropyl)-3-phenylpropanamide] were “(0.94)” and 0.012 µM.
Taken in the same sequence, the figures for `CC(C)C[C@H](NC(=O)Nc1ccc(Br)cc1)C(=O)N[C@H](C(=O)O)C(C)C` [Compound 44, (2S)-2-{[(2S)-2-{[(4-bromophenyl)carbamoyl]amino}-4-methylpentanoyl]amino}-3-methylbutanoic acid] were “(1.13)” and 0.00183 µM.
Turning to `CC(C)C[C@H](NC(=O)Nc1ccc(Br)cc1)C(=O)NCC(O)CO` (stereo partly drawn) [Compound 47, (2S)-2-{[(4-bromophenyl)carbamoyl]amino}-N-(2,3-dihydroxypropyl)-4-methylpentanamide], the EC50 was found to be 0.0051 µM.
For `O=C(O)CNC(=O)C(Cc1c[nH]c2ccccc12)NC(=O)Nc1ccc(Br)cc1` (centres unmarked) [{[2-{[(4-bromophenyl)carbamoyl]amino}-3-(1H-indol-3-yl)propanoyl]amino}acetic acid], the “FPRL-1 Ga16-CHO (Rel. eff.)” value was “(0.97)” and the EC50 is 0.00073 µM.
For `CCC[C@H](NC(=O)Nc1ccc(Br)cc1F)C(=O)NCCO` [Compound 21, (2S)-2-{[(4-bromo-2-fluorophenyl)carbamoyl]amino}-N-(2-hydroxyethyl) pentanamide], in that order: “(0.87)” and 0.105 µM.
For `CC[C@H](C)[C@H](NC(=O)Nc1ccc(Br)cc1)C(=O)NCC(=O)O` [Compound 4, {[(2S,3S)-2-{[(4-bromophenyl)carbamoyl]amino}-3-methylpentanoyl]amino}acetic acid], in that order: “(1.00)” and 0.0027 µM.
With `CCC(CC)(NC(=O)Nc1ccc(Br)cc1)C(=O)NCC(=O)OC(C)(C)C` [Compound 57, tert-butyl {[2-{[(4-bromophenyl)carbamoyl]amino}-2-ethylbutanoyl]amino}acetate], the “FPRL-1 Ga16-CHO (Rel. eff.)” value is reported as “(1.03)” and the EC50 is 0.031 µM.
As to `CC(C)C[C@H](NC(=O)Nc1ccc(Br)cc1)C(=O)NCC(C)(C)O` [Compound 47, (2S)-2-{[(4-bromophenyl)carbamoyl]amino}-N-(2-hydroxy-2-methylpropyl)-4-methylpentanamide], the EC50 came to 0.0021 µM.
On to `CC(C)C[C@H](NC(=O)Nc1ccc(Br)cc1F)C(=O)N[C@@H](C)C(N)=O` [Compound 40, (2S)-N-[(1S)-2-amino-1-methyl-2-oxoethyl]-2-{[(4-bromo-2-fluorophenyl)carbamoyl]amino}-4-methylpentanamide], for which the “FPRL-1 Ga16-CHO (Rel. eff.)” value was “(1.05)” and the EC50 stood at 0.031 µM.
For `CC(C)C[C@H](NC(=O)Nc1ccc(Br)cc1)C(=O)NCCO` [Compound 26, (2S)-2-{[(4-bromophenyl)carbamoyl]amino}-N-(2-hydroxyethyl)-4-methylpentanamide], in that order: “(0.92)” and 0.011 µM.
Taken in the same sequence, the figures for `CC(C)C[C@H](NC(=O)Nc1ccc(Br)cc1)C(=O)N[C@@H](C)C(N)=O` [Compound 45, (2S)-N-[(1S)-2-amino-1-methyl-2-oxoethyl]-2-{[(4-bromophenyl)carbamoyl]amino}-4-methylpentanamide] were “(0.96)” and 0.024 µM.
Taken in the same sequence, the figures for `CC(C)C[C@H](NC(=O)Nc1ccc(Br)cc1F)C(=O)NCC(=O)O` [Compound 34, {[(2S)-2-{[(4-bromo-2-fluorophenyl)carbamoyl]amino}-4-methylpentanoyl]amino}acetic acid] were “(1.10)” and 0.0036 µM.
As for `CC(C)C[C@H](NC(=O)Nc1ccc(C(F)(F)F)cc1)C(=O)NC(C)(C)C(=O)OC(C)(C)C` [Compound 79, tert-butyl 2-methyl-2-{[(2S)-4-methyl-2-({[4-(trifluoromethyl)phenyl]carbamoyl}amino)pentanoyl]amino}propanoate], the “FPRL-1 Ga16-CHO (Rel. eff.)” value is given as “(1.07)” and the EC50 was found to be 1.02 µM.
For `O=C(Nc1ccc(Br)cc1F)N[C@@H](Cc1ccccc1)C(=O)NCCO` [Compound 19, (2S)-2-{[(4-bromo-2-fluorophenyl)carbamoyl]amino}-N-(2-hydroxyethyl)-3-phenylpropanamide], in that order: “(0.98)” and 0.016 µM.
For `O=C(O)CNC(=O)[C@H](Cc1ccccc1)NC(=O)Nc1ccc(Br)cc1` [Compound 1, {[(2S)-2-{[(4-bromophenyl)carbamoyl]amino}-3-phenylpropanoyl]amino}acetic acid], in that order: “(0.99)” and 0.0077 µM.
For `CSc1ccc(NC(=O)N[C@@H](CC(C)C)C(=O)NCC(=O)OC(C)(C)C)cc1` [Compound 68, tert-butyl {[(2S)-4-methyl-2-({[4-(methylsulfanyl)phenyl]carbamoyl}amino)pentanoyl]amino}acetate], in that order: “(0.98)” and 0.116 µM.
Consider `CCC[C@H](NC(=O)Nc1ccc(Br)cc1)C(=O)NCC(=O)O` [Compound 5, {[(2S)-2-{[(4-bromophenyl)carbamoyl]amino}pentanoyl]amino}acetic acid], for which the “FPRL-1 Ga16-CHO (Rel. eff.)” value was “(0.91)” and the concentration giving a half-maximal response (EC50) is 0.0032 µM.
Taken in the same sequence, the figures for `CCC[C@H](NC(=O)Nc1ccc(Br)cc1)C(=O)NCC(=O)OC` [Compound 22, methyl {[(2S)-2-{[(4-bromophenyl)carbamoyl]amino}-pentanoyl]amino}acetate] were “(0.88)” and 0.017 µM.
For `CC[C@H](C)[C@H](NC(=O)Nc1ccc(Br)cc1F)C(=O)NCC(N)=O` [Compound 29, (2S,3S)-N-(2-amino-2-oxoethyl)-2-{[(4-bromo-2-fluorophenyl)carbamoyl]amino}-3-methylpentanamide], in that order: “(1.00)” and 0.01 µM.
For `CC(=O)CNC(=O)[C@H](Cc1ccccc1)NC(=O)Nc1ccc(Br)cc1` [Compound 16, (2S)-2-{[(4-bromophenyl)carbamoyl]aminio}-N-(2-oxopropyl)-3-phenylpropanamide], in that order: “(0.96)” and 0.029 µM.
On to `CC[C@H](C)[C@H](NC(=O)Nc1ccc(Br)cc1F)C(=O)NCC(=O)O` [Compound 3, {[(2S,3S)-2-{[(4-bromo-2-fluorophenyl)carbamoyl]amino}-3-methylpentanoyl]amino}acetic acid], for which the “FPRL-1 Ga16-CHO (Rel. eff.)” value is given as “(0.95)” and the EC50 turned out to be 0.0055 µM.
Taken in the same sequence, the figures for `CC(C)C[C@H](NC(=O)Nc1ccc([S+](C)[O-])cc1)C(=O)NCC(=O)O` (stereo partly drawn) [Compound 77, {[(2S)-4-methyl-2-({[4-(methylsulfinyl)phenyl]carbamoyl}amino)pentanoyl]amino}acetic acid] were “(1.21)” and 0.358 µM.
